Data from ChEMBL document CHEMBL1142358, “3-amino-benzo[d]isoxazoles as novel multitargeted inhibitors of receptor tyrosine kinases” (J Med Chem, 2008).
The source made the active and inactive calls. No cut-off for these calls is given here.

Legend:
[1] = molecular target: Mast/stem cell growth factor receptor Kit (Homo sapiens, UniProt P10721); assay: Inhibition of KIT by HTRF assay
[2] = molecular target: T1, Vascular endothelial growth factor receptor 2 (Homo sapiens, UniProt P35968)
Description: Inhibition of KDR by HTRF assay

[3] = molecular target: T2, Receptor-type tyrosine-protein kinase FLT3 (Homo sapiens, UniProt P36888)
T2 sequence (P36888 whole entry): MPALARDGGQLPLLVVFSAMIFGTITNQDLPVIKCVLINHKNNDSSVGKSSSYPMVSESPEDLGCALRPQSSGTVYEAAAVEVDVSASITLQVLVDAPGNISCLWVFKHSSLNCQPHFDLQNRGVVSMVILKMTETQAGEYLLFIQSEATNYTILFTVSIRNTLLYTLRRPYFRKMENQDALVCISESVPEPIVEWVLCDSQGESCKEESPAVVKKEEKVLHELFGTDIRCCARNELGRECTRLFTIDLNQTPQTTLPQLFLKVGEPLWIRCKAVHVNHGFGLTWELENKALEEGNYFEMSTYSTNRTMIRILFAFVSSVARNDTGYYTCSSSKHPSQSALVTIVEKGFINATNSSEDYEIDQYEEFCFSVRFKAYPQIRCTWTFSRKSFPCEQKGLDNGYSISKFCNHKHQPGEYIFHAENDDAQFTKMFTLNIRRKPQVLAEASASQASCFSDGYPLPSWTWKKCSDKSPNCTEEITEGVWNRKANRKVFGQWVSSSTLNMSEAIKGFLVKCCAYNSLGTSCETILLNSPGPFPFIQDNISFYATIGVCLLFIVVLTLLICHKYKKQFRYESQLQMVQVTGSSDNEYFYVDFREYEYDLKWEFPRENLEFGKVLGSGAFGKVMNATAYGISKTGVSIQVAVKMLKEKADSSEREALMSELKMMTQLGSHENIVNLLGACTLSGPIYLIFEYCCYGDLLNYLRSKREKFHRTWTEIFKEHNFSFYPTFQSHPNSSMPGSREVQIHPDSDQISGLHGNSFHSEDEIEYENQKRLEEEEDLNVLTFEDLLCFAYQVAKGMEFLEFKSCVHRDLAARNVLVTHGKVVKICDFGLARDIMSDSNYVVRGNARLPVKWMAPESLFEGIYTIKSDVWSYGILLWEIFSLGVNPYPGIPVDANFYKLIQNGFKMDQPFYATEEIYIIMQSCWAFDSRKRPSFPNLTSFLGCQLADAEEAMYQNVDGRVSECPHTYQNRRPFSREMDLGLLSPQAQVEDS
Description: Inhibition of FLT3 by HTRF assay

[4] = molecular target: Vascular endothelial growth factor receptor 1 (Homo sapiens, UniProt P17948); assay: Inhibition of FLT1 by HTRF assay
[5] = Oral bioavailability in mouse at 10 mg/kg; assay type: ADME, organism-based; conditions: in vivo
[6] = AUC (0 to 24 hrs) in mouse plasma at 10 mg/kg/day; assay type: ADME, organism-based; parameters: time < 24 hr, dose 10 mg/kg/day
[7] = molecular target: Tyrosine-protein kinase HCK (Homo sapiens, UniProt P08631); assay: Inhibition of HCK by HTRF assay
[8] = test system: HT-1080; assay: Inhibition of tumor growth in human HT1080 cells xenografted in SCID/Beige mouse at 10 mg/kg/day, bid relative to control; assay type: functional; conditions: read-out: TGI
[9] = molecular target: Angiopoietin-1 receptor (Homo sapiens, UniProt Q02763); assay: Inhibition of TIE2 by HTRF assay
[10] = test system: Mus musculus; assay: Inhibition of estradiol-induced uterine edema in orally dosed BALB/c mouse edema model; assay type: functional; conditions: po
[11] = Inhibition of FGFR by HTRF assay
[12] = AUC in mouse at 10 mg/kg, po; assay type: ADME, organism-based; parameters: dose 10 mg/kg, route oral; conditions: plasma
[13] = Half life in mouse at 1 mg/kg, iv; assay type: ADME, organism-based; parameters: dose 1 mg/kg, route intravenous; conditions: in vivo
[14] = Clearance in mouse at 1 mg/kg, iv; assay type: ADME, organism-based; parameters: dose 1 mg/kg, route intravenous; conditions: in vivo
[15] = molecular target: Platelet-derived growth factor receptor beta (Homo sapiens, UniProt P09619); assay: Inhibition of PDGFRbeta by HTRF assay
[16] = Volume of distribution in mouse at 1 mg/kg, iv; assay type: ADME, organism-based; parameters: dose 1 mg/kg, route intravenous; conditions: in vivo
[17] = molecular target: Tyrosine-protein kinase Lyn (Homo sapiens, UniProt P07948); assay: Inhibition of LYN by HTRF assay
[18] = molecular target: Proto-oncogene tyrosine-protein kinase Src (Homo sapiens, UniProt P12931); assay: Inhibition of SRC by HTRF assay
[19] = molecular target: Macrophage colony-stimulating factor 1 receptor (Homo sapiens, UniProt P07333); assay: Inhibition of CSF1R by HTRF assay
[20] = molecular target: Receptor-type tyrosine-protein kinase FLT3 (Homo sapiens) (UniProt P36888)
Description: Inhibition of FLT3 by HTRF assay

[21] = molecular target: T1, Vascular endothelial growth factor receptor 2; assay: Inhibition of human KDR phosphorylation in mouse NIH3T3 cells by ELISA; assay type: cell-based

Chain of Mast/stem cell growth factor receptor Kit (P10721 whole entry): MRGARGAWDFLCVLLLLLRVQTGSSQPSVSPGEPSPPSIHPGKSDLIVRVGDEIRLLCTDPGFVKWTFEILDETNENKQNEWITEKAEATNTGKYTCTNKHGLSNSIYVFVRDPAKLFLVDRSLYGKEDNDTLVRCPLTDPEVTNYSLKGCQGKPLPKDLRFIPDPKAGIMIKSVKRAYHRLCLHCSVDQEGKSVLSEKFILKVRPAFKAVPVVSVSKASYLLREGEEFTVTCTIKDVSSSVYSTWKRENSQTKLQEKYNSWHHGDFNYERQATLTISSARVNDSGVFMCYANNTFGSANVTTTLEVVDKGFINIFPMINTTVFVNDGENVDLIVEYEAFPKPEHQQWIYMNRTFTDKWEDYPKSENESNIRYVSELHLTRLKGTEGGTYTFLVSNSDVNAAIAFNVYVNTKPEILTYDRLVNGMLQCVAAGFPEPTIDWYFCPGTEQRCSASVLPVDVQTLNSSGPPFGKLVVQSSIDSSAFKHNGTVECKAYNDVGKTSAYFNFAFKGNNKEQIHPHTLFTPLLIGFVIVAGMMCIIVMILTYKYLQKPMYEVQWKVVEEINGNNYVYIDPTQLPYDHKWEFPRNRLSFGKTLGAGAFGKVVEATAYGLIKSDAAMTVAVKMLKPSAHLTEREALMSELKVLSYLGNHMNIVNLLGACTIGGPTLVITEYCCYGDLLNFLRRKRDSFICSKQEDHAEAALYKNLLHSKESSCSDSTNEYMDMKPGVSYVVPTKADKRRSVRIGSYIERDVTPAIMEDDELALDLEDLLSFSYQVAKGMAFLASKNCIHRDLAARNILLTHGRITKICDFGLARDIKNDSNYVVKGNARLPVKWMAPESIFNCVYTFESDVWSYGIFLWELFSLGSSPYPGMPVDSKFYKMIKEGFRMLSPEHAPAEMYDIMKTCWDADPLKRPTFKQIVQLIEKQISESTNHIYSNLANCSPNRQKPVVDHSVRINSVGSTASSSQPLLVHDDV
T1 sequence (P35968 whole entry): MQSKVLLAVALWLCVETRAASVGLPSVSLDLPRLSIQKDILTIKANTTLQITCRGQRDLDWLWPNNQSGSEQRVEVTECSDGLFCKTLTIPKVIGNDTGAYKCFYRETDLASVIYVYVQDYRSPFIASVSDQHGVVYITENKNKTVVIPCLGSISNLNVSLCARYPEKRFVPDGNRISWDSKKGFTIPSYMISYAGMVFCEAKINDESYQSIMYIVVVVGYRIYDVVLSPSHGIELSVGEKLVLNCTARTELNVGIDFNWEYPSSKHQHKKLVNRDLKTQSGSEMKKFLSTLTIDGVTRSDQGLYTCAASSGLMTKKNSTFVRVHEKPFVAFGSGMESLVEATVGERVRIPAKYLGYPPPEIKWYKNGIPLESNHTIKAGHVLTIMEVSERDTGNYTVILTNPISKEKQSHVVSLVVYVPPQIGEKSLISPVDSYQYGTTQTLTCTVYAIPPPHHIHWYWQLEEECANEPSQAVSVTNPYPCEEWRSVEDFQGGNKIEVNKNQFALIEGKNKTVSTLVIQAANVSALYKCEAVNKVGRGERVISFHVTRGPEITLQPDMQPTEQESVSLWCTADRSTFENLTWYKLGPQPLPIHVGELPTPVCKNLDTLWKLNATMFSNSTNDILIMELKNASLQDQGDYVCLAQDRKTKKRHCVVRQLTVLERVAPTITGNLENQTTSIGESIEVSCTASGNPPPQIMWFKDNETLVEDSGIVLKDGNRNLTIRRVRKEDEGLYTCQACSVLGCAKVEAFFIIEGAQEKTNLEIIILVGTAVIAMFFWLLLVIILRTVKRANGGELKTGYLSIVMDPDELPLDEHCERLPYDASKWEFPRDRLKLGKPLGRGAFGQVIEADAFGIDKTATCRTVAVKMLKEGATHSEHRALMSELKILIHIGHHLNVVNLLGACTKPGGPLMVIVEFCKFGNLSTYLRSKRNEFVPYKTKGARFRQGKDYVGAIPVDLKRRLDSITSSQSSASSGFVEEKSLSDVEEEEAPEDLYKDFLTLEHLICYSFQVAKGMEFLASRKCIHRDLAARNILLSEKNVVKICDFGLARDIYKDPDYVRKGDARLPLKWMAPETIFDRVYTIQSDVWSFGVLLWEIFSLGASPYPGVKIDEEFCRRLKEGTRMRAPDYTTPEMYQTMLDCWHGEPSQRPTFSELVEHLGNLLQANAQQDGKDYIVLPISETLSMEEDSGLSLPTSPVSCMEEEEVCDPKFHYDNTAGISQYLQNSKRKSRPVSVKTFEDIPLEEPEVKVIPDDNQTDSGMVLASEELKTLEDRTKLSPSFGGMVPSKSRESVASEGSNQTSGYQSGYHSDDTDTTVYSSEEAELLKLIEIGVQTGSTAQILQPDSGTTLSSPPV
Chain of Tyrosine-protein kinase Lyn (P07948 whole entry): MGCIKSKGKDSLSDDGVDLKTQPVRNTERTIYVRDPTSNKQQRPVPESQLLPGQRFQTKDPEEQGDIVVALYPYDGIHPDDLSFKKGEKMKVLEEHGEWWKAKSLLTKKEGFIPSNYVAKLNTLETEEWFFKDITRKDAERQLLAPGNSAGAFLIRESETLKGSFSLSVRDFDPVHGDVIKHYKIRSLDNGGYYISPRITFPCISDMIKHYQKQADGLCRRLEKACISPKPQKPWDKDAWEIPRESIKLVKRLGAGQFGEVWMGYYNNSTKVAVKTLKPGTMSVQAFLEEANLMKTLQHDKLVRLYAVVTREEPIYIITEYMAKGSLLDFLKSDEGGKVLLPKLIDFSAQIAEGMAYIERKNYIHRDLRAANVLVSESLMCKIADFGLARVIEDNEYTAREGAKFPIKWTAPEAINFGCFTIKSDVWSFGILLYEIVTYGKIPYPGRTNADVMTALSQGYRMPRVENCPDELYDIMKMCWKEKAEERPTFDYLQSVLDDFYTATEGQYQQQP
Chain of Proto-oncogene tyrosine-protein kinase Src (P12931 2-536 limits assumed): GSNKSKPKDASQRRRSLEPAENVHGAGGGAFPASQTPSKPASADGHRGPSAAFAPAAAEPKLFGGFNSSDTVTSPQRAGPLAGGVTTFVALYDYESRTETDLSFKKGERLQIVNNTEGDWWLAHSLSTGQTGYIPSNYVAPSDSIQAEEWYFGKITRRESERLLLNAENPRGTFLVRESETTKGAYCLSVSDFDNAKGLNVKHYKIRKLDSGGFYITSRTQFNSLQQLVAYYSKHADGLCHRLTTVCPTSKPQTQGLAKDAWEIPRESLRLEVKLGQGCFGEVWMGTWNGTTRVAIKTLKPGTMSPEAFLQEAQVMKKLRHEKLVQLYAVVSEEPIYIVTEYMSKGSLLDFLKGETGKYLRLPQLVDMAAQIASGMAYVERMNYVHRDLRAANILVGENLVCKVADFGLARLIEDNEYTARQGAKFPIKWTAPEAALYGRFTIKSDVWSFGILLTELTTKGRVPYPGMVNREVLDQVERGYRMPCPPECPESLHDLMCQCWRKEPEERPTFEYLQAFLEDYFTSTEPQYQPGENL
Chain of Vascular endothelial growth factor receptor 1 (P17948 whole entry): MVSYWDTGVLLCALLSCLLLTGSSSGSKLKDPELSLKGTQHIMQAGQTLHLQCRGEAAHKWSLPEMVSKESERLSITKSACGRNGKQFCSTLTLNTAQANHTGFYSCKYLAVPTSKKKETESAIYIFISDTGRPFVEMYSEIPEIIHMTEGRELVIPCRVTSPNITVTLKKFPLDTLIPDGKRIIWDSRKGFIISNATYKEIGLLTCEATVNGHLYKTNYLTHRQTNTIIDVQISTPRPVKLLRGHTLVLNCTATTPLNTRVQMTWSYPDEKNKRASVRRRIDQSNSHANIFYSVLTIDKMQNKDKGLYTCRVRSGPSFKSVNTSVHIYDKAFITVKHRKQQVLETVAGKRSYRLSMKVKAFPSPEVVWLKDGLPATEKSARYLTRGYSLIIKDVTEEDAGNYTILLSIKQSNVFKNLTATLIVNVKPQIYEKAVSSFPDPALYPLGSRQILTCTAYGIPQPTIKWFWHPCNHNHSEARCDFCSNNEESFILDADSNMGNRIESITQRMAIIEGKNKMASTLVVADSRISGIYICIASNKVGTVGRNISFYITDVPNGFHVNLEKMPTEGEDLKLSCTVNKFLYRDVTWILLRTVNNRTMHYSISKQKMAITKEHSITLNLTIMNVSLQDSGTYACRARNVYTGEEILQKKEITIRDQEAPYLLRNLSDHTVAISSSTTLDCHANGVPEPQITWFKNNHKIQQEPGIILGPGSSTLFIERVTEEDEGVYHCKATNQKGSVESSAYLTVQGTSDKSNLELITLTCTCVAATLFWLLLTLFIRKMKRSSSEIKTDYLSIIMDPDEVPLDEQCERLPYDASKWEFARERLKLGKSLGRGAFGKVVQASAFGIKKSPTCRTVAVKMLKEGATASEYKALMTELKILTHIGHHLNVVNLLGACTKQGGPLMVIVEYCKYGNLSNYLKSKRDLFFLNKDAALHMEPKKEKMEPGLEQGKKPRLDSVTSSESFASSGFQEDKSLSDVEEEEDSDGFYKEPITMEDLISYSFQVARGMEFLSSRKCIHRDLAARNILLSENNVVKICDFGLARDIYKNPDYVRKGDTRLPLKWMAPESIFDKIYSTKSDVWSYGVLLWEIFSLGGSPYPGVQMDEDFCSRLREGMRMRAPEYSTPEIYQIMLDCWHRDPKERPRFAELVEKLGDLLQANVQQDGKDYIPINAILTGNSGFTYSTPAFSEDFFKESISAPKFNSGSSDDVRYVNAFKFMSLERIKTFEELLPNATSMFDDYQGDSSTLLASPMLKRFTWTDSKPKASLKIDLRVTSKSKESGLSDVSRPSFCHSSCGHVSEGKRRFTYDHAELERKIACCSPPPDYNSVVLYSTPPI

| Structure (SMILES) | IC50 [1] | IC50 [3] | further results |
| --- | --- | --- | --- |
| Nc1nsc2cccc(-c3ccc(NC(=O)Nc4cccc(C(F)(F)F)c4)cc3)c12 | 2630 nM | 1260 nM | IC50 [2]: 247 nM |
| COc1ccc(-c2ccc(NC(=O)Nc3cccc(C(F)(F)F)c3)cc2)c2c(N)noc12 | 56 nM | 19 nM | IC50 [4]: 16 nM; bioavailability [5]: 100%; AUC at 24 h [6]: 13.2 µM·h; IC50 [7]: > 50000 nM; inhibition in vivo at 10 mg/kg/day [8]: 81%; IC50 [9]: 270 nM; ED50 [10]: 2 mg/kg; IC50 [11]: 3000 nM; AUC [12]: 30.6 µM·h; half-life [13]: 54 min; clearance [14]: 28.3 mL/min/kg; IC50 [15]: 130 nM; Vd [16]: 2.2 L/kg; IC50 [17]: > 50000 nM; IC50 [18]: > 50000 nM; IC50 [19]: 30 nM |
| Nc1noc2cccc(-c3ccc(NC(=O)Nc4ccccc4OC(F)(F)F)cc3)c12 | 166 nM | 60 nM |  |
| Cc1ccc(F)c(NC(=O)Nc2ccc(-c3ccc(OC(F)(F)F)c4onc(N)c34)cc2)c1 | 294 nM | 58 nM |  |
| COc1ccc(NC(=O)Nc2ccc(-c3cccc4onc(N)c34)cc2)cc1 | 5 nM |  | Activity [20]: inactive |
| Nc1noc2cccc(-c3ccc(NC(=O)Nc4cccc([N+](=O)[O-])c4)cc3)c12 | 14 nM | 5 nM |  |
| Cc1cccc(NC(=O)Nc2ccc(-c3cccc4onc(N)c34)cc2)c1 | 12 nM | 14 nM |  |
| Nc1noc2cccc(-c3ccc(NC(=O)Nc4cccc(C(F)(F)F)c4)cc3)c12 | 114 nM | 64 nM |  |
| Nc1noc2cccc(-c3ccc(NC(=O)Nc4ccc(F)c(Cl)c4)cc3)c12 | 36 nM | 22 nM |  |
| Nc1noc2cccc(-c3ccc(NC(=O)Nc4ccc(C(F)(F)F)cc4)cc3)c12 | 27 nM |  | Activity [20]: inactive |
| COc1cccc(NC(=O)Nc2ccc(-c3cccc4onc(N)c34)cc2)c1 | 4 nM |  | Activity [20]: inactive |
| Cc1ccc(NC(=O)Nc2ccc(-c3cccc4onc(N)c34)cc2)cc1 | 5 nM |  |  |
| Nc1noc2cccc(-c3ccc(NC(=O)Nc4ccccc4C(F)(F)F)cc3)c12 | 23400 nM |  |  |
| NC(=O)Nc1ccc(-c2cccc3onc(N)c23)cc1 | 4440 nM |  |  |
| Nc1noc2cccc(-c3ccc(NC(=O)Nc4cccc(Br)c4)cc3)c12 | 7 nM |  | Activity [20]: inactive |
| COc1ccc(NC(=O)Nc2ccc(-c3cccc4onc(N)c34)cc2)cc1Cl |  | 8 nM | IC50 [2]: 8 nM; IC50 [21]: 36 nM |
| Cc1ccc(F)c(NC(=O)Nc2ccc(-c3cccc4onc(N)c34)cc2)c1 | 23 nM |  |  |
| Nc1noc2cccc(-c3ccc(NC(=O)c4ccccc4)cc3)c12 | > 12500 nM | > 12500 nM | IC50 [2]: > 12500 nM |
| Nc1noc2cccc(-c3ccc(NC(=O)Nc4cc(F)cc(F)c4)cc3)c12 | 14 nM |  | Activity [20]: inactive |
| Nc1noc2cccc(-c3ccc(NC(=O)Nc4ccccc4)cc3)c12 | 18 nM |  |  |
